Reference: ChEMBL document CHEMBL5209897, “Affinity Phenotypic Cellular Literature for EUbOPEN Chemogenomics Library wave 3” (2023)

Legend:
[1] = target: T1, Calcium/calmodulin-dependent protein kinase kinase 2 (Homo sapiens, UniProt Q96RR4); experiment: Affinity Phenotypic Cellular interaction (Western Blot (downstream phosphorylation of AMPK in C4-2 cells)) EUB0000167b CAMKK2; assay type: cell-based; parameters: mode of action Inhibitor, recommended concentration 1 uM
[2] = target: Mitogen-activated protein kinase 14 (Homo sapiens, UniProt Q16539); experiment: Affinity Phenotypic Cellular interaction (TNF-a release (stimmulated by LPS in human WB)) EUB0000711a MAPK14; assay type: functional; parameters: mode of action Negative control for SR318, recommended concentration 1 uM
[3] = target: T2, Mitogen-activated protein kinase 11 (Homo sapiens, UniProt Q15759); experiment: Affinity Phenotypic Cellular interaction (TNF-a release (stimmulated by LPS in human WB)) EUB0000711a MAPK11; assay type: functional; parameters: mode of action Negative control for SR318, recommended concentration 1 uM
Presenilin-1 [4] = target: T3, Presenilin-1 (Homo sapiens, UniProt P49768); experiment: Affinity Phenotypic Cellular interaction (Abeta42 inhibition assay (electrochemiluminescent detection of peptides secreted by SH-SY5Y cells stably overexpressing the APP C-terminal fragment SPA4CT)) EUB0000739a PSEN1; parameters: mode of action Negative control for GSM1, recommended concentration 1 uM
[5] = target: T2, Mitogen-activated protein kinase 11
[6] = target: Methionine aminopeptidase 2 (Homo sapiens, UniProt P50579); experiment: Affinity Phenotypic Cellular interaction (Western Blot (acumulation of Nmet14-3-3gamma in HUVEC cells)) EUB0000303b METAP2; assay type: cell-based; parameters: mode of action Inhibitor, recommended concentration 1 uM
Presenilin-1 [7] = target: T3, Presenilin-1; experiment: Affinity Phenotypic Cellular interaction (Abeta40 inhibition assay (in SH-SY5Y (SP4CT) cells; APP as target)) EUB0000741a PSEN1; assay type: cell-based; parameters: mode of action Negative control for MRK-560, recommended concentration 100 nM
TGF-beta receptor type-1 = TGF-beta receptor type-1 (Homo sapiens, UniProt P36897); experiment: Affinity Phenotypic Cellular interaction (Western blot (inhibition of SMAD2/3 phosphorylation)) EUB0000710a TGFBR1
Activin receptor type-1B = Activin receptor type-1B (Homo sapiens, UniProt P36896); experiment: Affinity Phenotypic Cellular interaction (Western blot (inhibition of SMAD2/3 phosphorylation)) EUB0000710a ACVR1B
Presenilin-1 [8] = target: T3, Presenilin-1; experiment: Affinity Phenotypic Cellular interaction (Abeta40 inhibition assay (in SH-SY5Y (SP4CT) cells; APP as target)) EUB0000750a PSEN1; assay type: cell-based; parameters: mode of action Inhibitor, recommended concentration 100 nM
[9] = target: 5'-AMP-activated protein kinase catalytic subunit alpha-1 (Homo sapiens, UniProt Q13131); experiment: Affinity Phenotypic Cellular interaction (Cellular mechanistic pACC assay using IMR-32 neuroblastoma cells) EUB0000707a PRKAA1; assay type: functional; parameters: mode of action Negative control for BAY-3827, recommended concentration 100 nM
[10] = target: Ribosomal protein S6 kinase alpha-1 (Homo sapiens) (UniProt Q15418); experiment: Affinity Phenotypic Cellular interaction (Cellular mechanistic pACC assay using IMR-32 neuroblastoma cells) EUB0000707a RPS6KA1
[11] = target: T1, Calcium/calmodulin-dependent protein kinase kinase 2; experiment: Affinity Phenotypic Cellular interaction (Western Blot (downstream phosphorylation of AMPK in C4-2 cells)) EUB0000168b CAMKK2; assay type: cell-based; parameters: mode of action Negative control for SGC-CAMKK2-1 (UNC-YL-36), recommended concentration 1 uM
[12] = Affinity Phenotypic Cellular interaction (Proliferation assay (CellTiter-Glo ATP assay in human lung H1299 cells)) EUB0000752a NDUFS2
[13] = target: T2, Mitogen-activated protein kinase 11; experiment: Affinity Phenotypic Cellular interaction (TNF-a release (stimmulated by LPS in human WB)) EUB0000718a MAPK11; assay type: functional; parameters: mode of action Inhibitor, recommended concentration 1 uM
[14] = target: B-cell lymphoma 6 protein (Homo sapiens, UniProt P41182); experiment: Affinity Phenotypic Cellular interaction (Inhibition of BCL6 co-repressor (BCoR, M2H assay/Bright-Glo luciferase assay in HEK293T cells, Promega)) EUB0000316c BCL6; assay type: cell-based; parameters: mode of action Inhibitor, recommended concentration 1 uM

T2 sequence (Q15759 whole entry, the tested form may be a part): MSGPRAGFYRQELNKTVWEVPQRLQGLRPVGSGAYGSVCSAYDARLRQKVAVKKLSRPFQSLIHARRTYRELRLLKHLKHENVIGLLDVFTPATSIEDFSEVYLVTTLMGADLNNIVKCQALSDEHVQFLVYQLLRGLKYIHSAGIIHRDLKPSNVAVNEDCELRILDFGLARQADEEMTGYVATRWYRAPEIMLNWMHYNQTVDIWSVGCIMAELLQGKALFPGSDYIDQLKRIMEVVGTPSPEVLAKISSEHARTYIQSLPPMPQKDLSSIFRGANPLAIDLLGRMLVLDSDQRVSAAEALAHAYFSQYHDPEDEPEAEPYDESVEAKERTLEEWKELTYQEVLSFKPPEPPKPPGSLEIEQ
T1 sequence (Q96RR4 whole entry): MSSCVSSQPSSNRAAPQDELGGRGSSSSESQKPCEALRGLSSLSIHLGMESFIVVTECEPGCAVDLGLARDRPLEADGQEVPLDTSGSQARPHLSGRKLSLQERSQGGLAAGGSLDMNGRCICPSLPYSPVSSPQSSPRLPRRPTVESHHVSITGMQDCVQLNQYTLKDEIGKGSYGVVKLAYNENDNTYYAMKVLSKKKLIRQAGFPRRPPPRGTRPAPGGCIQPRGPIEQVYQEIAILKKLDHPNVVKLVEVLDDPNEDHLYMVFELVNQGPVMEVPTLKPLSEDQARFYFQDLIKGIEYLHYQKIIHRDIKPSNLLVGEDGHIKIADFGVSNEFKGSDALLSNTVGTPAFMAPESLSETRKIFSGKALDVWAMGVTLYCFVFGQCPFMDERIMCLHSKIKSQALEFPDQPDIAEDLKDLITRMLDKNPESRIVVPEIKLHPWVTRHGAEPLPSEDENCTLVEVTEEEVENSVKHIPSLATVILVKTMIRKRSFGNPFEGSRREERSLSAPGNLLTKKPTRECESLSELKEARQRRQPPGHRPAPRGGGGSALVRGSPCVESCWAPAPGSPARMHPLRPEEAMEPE
Mitogen-activated protein kinase 14, sequence (Q16539 whole entry): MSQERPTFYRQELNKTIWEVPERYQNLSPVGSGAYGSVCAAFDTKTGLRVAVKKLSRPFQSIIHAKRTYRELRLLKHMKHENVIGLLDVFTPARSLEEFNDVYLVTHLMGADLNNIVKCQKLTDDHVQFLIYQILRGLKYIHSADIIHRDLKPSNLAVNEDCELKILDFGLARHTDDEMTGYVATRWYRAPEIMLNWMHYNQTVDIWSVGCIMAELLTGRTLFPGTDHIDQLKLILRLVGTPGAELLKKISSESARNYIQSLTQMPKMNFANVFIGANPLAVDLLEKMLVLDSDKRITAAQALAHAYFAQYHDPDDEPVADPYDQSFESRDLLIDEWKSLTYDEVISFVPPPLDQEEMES
5'-AMP-activated protein kinase catalytic subunit alpha-1, sequence (Q13131 whole entry): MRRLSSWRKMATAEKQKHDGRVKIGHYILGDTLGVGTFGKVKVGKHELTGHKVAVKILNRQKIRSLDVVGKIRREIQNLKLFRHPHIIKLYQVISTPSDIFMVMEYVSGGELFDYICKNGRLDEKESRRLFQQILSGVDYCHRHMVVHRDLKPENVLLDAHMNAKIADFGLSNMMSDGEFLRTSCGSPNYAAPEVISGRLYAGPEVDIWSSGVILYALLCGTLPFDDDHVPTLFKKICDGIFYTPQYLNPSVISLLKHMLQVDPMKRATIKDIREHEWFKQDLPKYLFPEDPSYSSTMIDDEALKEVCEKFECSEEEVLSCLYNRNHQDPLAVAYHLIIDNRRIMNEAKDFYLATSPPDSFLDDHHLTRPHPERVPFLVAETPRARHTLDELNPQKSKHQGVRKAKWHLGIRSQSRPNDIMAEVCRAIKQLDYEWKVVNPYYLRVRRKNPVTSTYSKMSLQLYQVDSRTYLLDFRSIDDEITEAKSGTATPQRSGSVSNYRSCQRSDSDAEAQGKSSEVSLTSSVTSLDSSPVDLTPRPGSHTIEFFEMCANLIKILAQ
TGF-beta receptor type-1, sequence (P36897 whole entry): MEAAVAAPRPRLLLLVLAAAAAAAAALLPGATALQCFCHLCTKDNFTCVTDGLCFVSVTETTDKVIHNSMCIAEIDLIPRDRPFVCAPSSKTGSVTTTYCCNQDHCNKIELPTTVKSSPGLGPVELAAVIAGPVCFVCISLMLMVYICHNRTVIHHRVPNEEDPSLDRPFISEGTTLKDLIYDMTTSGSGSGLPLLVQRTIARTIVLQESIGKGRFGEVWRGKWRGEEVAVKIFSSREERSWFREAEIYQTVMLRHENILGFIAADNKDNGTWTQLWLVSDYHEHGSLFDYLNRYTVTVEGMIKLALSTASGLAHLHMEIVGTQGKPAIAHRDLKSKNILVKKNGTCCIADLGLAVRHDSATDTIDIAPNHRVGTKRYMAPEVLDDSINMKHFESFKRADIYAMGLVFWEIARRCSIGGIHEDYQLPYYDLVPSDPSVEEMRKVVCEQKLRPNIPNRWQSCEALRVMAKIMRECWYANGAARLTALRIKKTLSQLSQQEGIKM
Methionine aminopeptidase 2, sequence (P50579 whole entry): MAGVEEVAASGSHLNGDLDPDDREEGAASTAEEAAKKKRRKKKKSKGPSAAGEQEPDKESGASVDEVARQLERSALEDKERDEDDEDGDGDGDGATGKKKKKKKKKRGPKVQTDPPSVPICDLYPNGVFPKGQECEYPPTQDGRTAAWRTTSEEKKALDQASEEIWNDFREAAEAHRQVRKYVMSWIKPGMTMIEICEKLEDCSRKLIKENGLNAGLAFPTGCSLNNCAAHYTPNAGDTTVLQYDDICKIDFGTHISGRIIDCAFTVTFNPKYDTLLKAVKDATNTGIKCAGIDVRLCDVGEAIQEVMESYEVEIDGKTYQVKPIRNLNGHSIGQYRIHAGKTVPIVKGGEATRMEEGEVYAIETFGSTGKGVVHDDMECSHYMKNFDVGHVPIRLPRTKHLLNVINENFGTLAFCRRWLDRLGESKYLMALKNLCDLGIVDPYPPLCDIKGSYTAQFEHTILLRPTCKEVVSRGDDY
Activin receptor type-1B, sequence (P36896 whole entry): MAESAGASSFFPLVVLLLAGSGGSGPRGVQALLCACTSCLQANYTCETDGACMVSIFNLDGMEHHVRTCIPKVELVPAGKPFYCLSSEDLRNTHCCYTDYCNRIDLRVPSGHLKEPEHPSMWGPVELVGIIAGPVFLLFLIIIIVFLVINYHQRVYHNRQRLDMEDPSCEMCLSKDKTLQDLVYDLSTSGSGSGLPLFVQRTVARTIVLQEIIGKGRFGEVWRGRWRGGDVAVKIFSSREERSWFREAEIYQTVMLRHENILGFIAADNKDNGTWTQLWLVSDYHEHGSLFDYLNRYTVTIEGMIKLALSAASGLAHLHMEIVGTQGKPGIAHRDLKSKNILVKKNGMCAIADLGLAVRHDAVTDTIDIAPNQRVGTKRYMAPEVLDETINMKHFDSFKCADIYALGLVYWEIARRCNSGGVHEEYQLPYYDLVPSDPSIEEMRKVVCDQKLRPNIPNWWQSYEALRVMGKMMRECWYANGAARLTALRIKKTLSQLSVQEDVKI
Ribosomal protein S6 kinase alpha-1 (Homo sapiens), sequence (Q15418 whole entry, looked up): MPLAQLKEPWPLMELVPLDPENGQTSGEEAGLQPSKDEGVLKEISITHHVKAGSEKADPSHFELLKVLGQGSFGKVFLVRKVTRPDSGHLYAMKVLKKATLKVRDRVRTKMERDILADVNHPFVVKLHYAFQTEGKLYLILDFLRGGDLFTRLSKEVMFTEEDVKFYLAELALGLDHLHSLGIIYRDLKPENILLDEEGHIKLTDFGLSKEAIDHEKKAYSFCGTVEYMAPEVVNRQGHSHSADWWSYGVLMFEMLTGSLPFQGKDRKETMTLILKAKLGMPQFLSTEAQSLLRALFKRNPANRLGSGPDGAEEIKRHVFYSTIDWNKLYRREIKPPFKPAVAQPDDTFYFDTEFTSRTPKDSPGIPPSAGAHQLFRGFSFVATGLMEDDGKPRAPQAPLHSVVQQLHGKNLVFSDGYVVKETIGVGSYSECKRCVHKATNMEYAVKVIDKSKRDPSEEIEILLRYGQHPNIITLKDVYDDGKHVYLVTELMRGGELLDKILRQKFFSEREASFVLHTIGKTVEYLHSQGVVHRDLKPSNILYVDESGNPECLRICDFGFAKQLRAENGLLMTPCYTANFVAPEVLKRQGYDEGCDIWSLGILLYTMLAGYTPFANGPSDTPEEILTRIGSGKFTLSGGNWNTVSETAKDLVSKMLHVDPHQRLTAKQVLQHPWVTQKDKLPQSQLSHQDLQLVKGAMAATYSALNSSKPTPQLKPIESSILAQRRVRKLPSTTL

Cc1cccc(-c2cnc3occ(-c4ccc(C(=O)O)c(C5CCCC5)c4)c3c2)c1
IC50 [1]: 1600 nM

O=C(NCCCC1CCCCC1)c1ccc(CNC(=O)c2cnn(-c3ccccc3)c2C(F)(F)F)cc1 [SR-321]
IC50 [2]: > 10000 nM
IC50 [3]: > 10000 nM

COc1cc(-c2cn([C@H]3CCc4ccccc4N(CC(F)(F)F)C3=O)nn2)ccc1-n1ccc(C)n1
IC50 (Presenilin-1 [4]): > 10000 nM

O=C1c2ccc(Nc3ccc(F)cc3F)cc2CCc2ccc(OC[C@H](O)CO)cc21 [Skepinone-L]
IC50 [5]: 25 nM

Cc1nc(N2CC[C@H](O)C2)ncc1-c1cc(C(F)(F)F)cc2[nH]ncc12
EC50 [6]: 15 nM

CC(C)(C)OC(=O)N1CCCC1CNC1CCC(c2cc(F)ccc2F)(S(=O)(=O)c2ccc(Cl)cc2)CC1 (stereo unspecified) [GSI-NC]
IC50 (Presenilin-1 [7]): 1600 nM

Cc1cnc(-c2cc(Cl)ccc2F)cc1-n1c(=O)n(CC(N)=O)c2ccccc21 [Al11]
EC50 (TGF-beta receptor type-1): > 10000 nM
EC50 (Activin receptor type-1B): > 10000 nM

O=S(=O)(NC1CCC(c2cc(F)ccc2F)(S(=O)(=O)c2ccc(Cl)cc2)CC1)C(F)(F)F (stereo unspecified) [MRK-560]
IC50 (Presenilin-1 [8]): < 0.5 nM

CC1=C(C#N)C(c2ccc3c(c2)c(NC(=O)c2ccccc2C)nn3C)C(C#N)=C(C)N1 [BAY-974]
IC50 [9]: > 30000 nM
IC50 [10]: > 30000 nM

O=C(O)c1ccc(-c2coc3ncc(-c4ccccc4)cc23)cc1Cl
IC50 [11]: > 10000 nM

c1ccc2oc(-c3csc(C4CCN(Cc5nc6ncccc6[nH]5)CC4)n3)cc2c1
IC50 [12]: 33 nM

O=C(NCCN1CCOCC1)c1ccc2c(c1)C(=O)c1ccc(Nc3ccc(F)c(NC(=O)c4ccccc4)c3)cc1CC2 [FS-694]
IC50 [13]: 38 nM

O=C1CCc2cc(Nc3cc(OC4CCOCC4)c([N+](=O)[O-])cc3Cl)ccc2N1
IC50 [14]: 720 nM
